The source of these data is patent publication US20230339981A1, “KRAS G12D MODULATING COMPOUNDS” (priority 2022, published 2023).

In experiment [1] the target is GDP-loaded KRAS G12D (Homo sapiens (Human), UniProt P01116, G12D). Briefly: KRAS G12D (GDP) biochemical assay (TR-FRET probe displacement). The format is binding. As to conditions: 2 hours. As to the method: Example A. KRAS G12D (GDP) Biochemical Assay
Compounds were tested for binding to GDP-loaded KRAS G12D in a 384-well assay format using a TR-FRET probe displacement assay in buffer consisting of 50 mM Hepes (pH 7.4), 150 mM NaCl, 5 mM MgCl2 and 0.005% Tween-20. […] Compounds were serially diluted (1:3) in DMSO. The LabCyte ECHO Acoustic dispenser system was used to pre-spot the assay plates (384-well Non-Binding Surface plates, Corning, Catalog #3824) with 50 nL of compound. The compounds were pre-incubated with 5 μL of 2× final enzyme concentration for 30 minutes before adding 5 μL of 2× final concentration of Eu-streptavidin and TR-FRET probe (10 μL final reaction volume). The plates were incubated at room temperature for 2 hours before measuring TR-FRET ratio on the Envision plate reader. IC50 values were defined as the compound concentration that causes a 50% decrease in TR-FRET ratio and were calculated using a sigmoidal dose-response model to generate curve fits.
In general terms: TR-FRET usually uses a lanthanide donor and a delayed reading to cut background.

Experiment [2] has as its system GP2D (KRAS G12D) cells. As to the kind of experiment: 2D cell viability assay (CellTiter-Glo). The format is cell-based. The settings on record: GP2d, 96 h, 4 days. The protocol:
Example B. 2D Cell Viability Assay
Compounds were tested in a 384-well format for their ability to inhibit the viability of GP2D (KRAS G12D) cells in 2D assays. Compounds were serially diluted (1:3) in DMSO. The LabCyte ECHO Acoustic dispenser system was used to pre-spot assay plates with 200 nL of test molecule per well. 1000 cells/well (40 μL volume per well) in RPMI medium with 10% FBS, and Penicillin-Streptomycin-Glutamine were plated in pre-spotted 384-well plates (Greiner, Catalog #781076) on the BioTEK EL406 liquid dispenser with a 5 μL dispensing cassette (BioTek 7170011). The plates were incubated at 37° C., 5% CO2 for 4 days before addition of CellTiter-Glo (CTG) reagent and measurement of luminescence signal. EC50 values were defined as the compound concentration that causes a 50% decrease in luminescence signal and were calculated using a sigmoidal dose-response model to generate curve fits.

pEC50, pIC50: −log10 of the molar value.

Sequence of GDP-loaded KRAS G12D (P01116-2 other isoform, or with tags, fused parts or gaps G12D): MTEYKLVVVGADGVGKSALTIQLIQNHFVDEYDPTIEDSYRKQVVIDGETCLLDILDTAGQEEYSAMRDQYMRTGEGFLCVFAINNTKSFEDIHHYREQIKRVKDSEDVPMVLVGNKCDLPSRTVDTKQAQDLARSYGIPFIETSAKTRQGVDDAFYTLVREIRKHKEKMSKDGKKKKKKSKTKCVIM

`C#Cc1c(F)ccc2cc(O)cc(-c3nc4c5c(nc(OC[C@@]67CCCN6[C@H](COC(=O)N(C)C(F)(F)F)CC7)nc5c3F)N3C[C@H]5CC[C@H](N5)[C@H]3CO4)c12` [Example 45, ((3S,7aS)-7a-((((5aS,6S,9R)-2-(8-ethynyl-7-fluoro-3-hydroxynaphthalen-1-yl)-1-fluoro-5a,6,7,8,9,10-hexahydro-5H-4-oxa-3,10a,11,13,14-pentaaza-6,9-methanonaphtho[1,8-ab]heptalen-12-yl)oxy)methyl)hexahydro-1H-pyrrolizin-3-yl)methyl methyl(trifluoromethyl)carbamate] gave a pIC50 in experiment [1] of 9.52. In experiment [2], the pEC50 is 8.40.

`Fc1c(-c2cccc3ccccc23)nc2c3c(nc(OC[C@@]45CCCN4C[C@H](F)C5)nc13)N1C[C@H]3CC[C@H](N3)[C@H]1CO2` [Example 46, (5aS,6S,9R)-1-fluoro-12-(((2R,7aS)-2-fluorotetrahydro-1H-pyrrolizin-7a(5H)-yl)methoxy)-2-(naphthalen-1-yl)-5a,6,7,8,9,10-hexahydro-5H-4-oxa-3,10a,11,13,14-pentaaza-6,9-methanonaphtho[1,8-ab]heptalene] gave a pIC50 in experiment [1] of 6.04. The negative-log EC50 (pEC50) in experiment [2] was below 6.00.

In experiment [1], `Fc1cc(-c2nc3c4c(nc(OC[C@@]56CCCN5C[C@H](F)C6)nc4c2F)N2C[C@H]4CC[C@H](N4)[C@H]2CO3)c2ccccc2c1` [Example 47, (5aS,6S,9R)-1-fluoro-2-(3-fluoronaphthalen-1-yl)-12-(((2R,7aS)-2-fluorotetrahydro-1H-pyrrolizin-7a(5H)-yl)methoxy)-5a,6,7,8,9,10-hexahydro-5H-4-oxa-3,10a,11,13,14-pentaaza-6,9-methanonaphtho[1,8-ab]heptalene] gave a pIC50 of 5.47. In experiment [2], this molecule had a pEC50 below 6.00.

`Fc1ccc2ccccc2c1-c1nc2c3c(nc(OC[C@@]45CCCN4C[C@H](F)C5)nc3c1F)N1C[C@H]3CC[C@H](N3)[C@H]1CO2` [Example 48, (5aS,6S,9R)-1-fluoro-2-(2-fluoronaphthalen-1-yl)-12-(((2R,7aS)-2-fluorotetrahydro-1H-pyrrolizin-7a(5H)-yl)methoxy)-5a,6,7,8,9,10-hexahydro-5H-4-oxa-3,10a,11,13,14-pentaaza-6,9-methanonaphtho[1,8-ab]heptalene] had a negative logarithm of the IC50 (pIC50) in experiment [1] of 5.66. This molecule also showed a pEC50 in experiment [2] below 6.00.

In experiment [1], `Oc1cc(-c2nc3c4c(nc(OC[C@@]56CCCN5C[C@H](F)C6)nc4c2F)N2C[C@H]4CC[C@H](N4)[C@H]2CC3)c2c(CC(F)(F)F)c(F)ccc2c1` [Example 50, 6-fluoro-4-((5aR,6S,9R)-1-fluoro-12-(((2R,7aS)-2-fluorotetrahydro-1H-pyrrolizin-7a(5H)-yl)methoxy)-4,5,5a,6,7,8,9,10-octahydro-3,10a,11,13,14-pentaaza-6,9-methanonaphtho[1,8-ab]heptalen-2-yl)-5-(2,2,2-trifluoroethyl)naphthalen-2-ol] gave a pIC50 of 8.52. The pEC50 in experiment [2] was 7.62.

Regarding `C#Cc1c(F)ccc2cc(O)cc(-c3nc4c5c(nc(OC[C@@]67CCCN6[C@H](COC(=O)N(C)c6cccc(S(F)(F)(F)(F)F)c6)CC7)nc5c3F)N3C[C@H]5CC[C@H](N5)[C@H]3CO4)c12` [Example 51, ((3S,7aS)-7a-((((5aS,6S,9R)-2-(8-ethynyl-7-fluoro-3-hydroxynaphthalen-1-yl)-1-fluoro-5a,6,7,8,9,10-hexahydro-5H-4-oxa-3,10a,11,13,14-pentaaza-6,9-methanonaphtho[1,8-ab]heptalen-12-yl)oxy)methyl)hexahydro-1H-pyrrolizin-3-yl)methyl methyl(3-(pentafluoro-λ^6-sulfaneyl)phenyl)carbamate], the negative-log IC50 (pIC50) in experiment [1] is 8.70. Further, the pEC50 in experiment [2] is 7.01.

With `C#Cc1c(F)ccc2cc(O)cc(-c3nc4c5c(nc(OC[C@@]67CCCN6C[C@H](F)C7)nc5c3F)N3C[C@H]5CC[C@H](N5)[C@H]3[C@H](C)O4)c12` [Example 53, 5-ethynyl-6-fluoro-4-((5S,5aS,6S,9R)-1-fluoro-12-(((2R,7aS)-2-fluorotetrahydro-1H-pyrrolizin-7a(5H)-yl)methoxy)-5-methyl-5a,6,7,8,9,10-hexahydro-5H-4-oxa-3,10a,11,13,14-pentaaza-6,9-methanonaphtho[1,8-ab]heptalen-2-yl)naphthalen-2-ol], the pIC50 in experiment [1] was 10.00. In addition, in experiment [2], the pEC50 is 8.70.

For the molecule `Oc1cc(-c2nc3c4c(nc(OC[C@@]56CCCN5C[C@H](F)C6)nc4c2F)N2C[C@H]4CC[C@H](N4)[C@H]2CO3)c2c(SC(F)(F)F)c(F)ccc2c1` [Example 54, 6-fluoro-4-((5aS,6S,9R)-1-fluoro-12-(((2R,7aS)-2-fluorotetrahydro-1H-pyrrolizin-7a(5H)-yl)methoxy)-5a,6,7,8,9,10-hexahydro-5H-4-oxa-3,10a,11,13,14-pentaaza-6,9-methanonaphtho[1,8-ab]heptalen-2-yl)-5-((trifluoromethyl)thio)naphthalen-2-ol], in experiment [1], the negative logarithm of the IC50 (pIC50) was 8.52. In experiment [2], this molecule gave a pEC50 of 7.38.

As to `C#Cc1c(F)ccc2cc(O)cc(-c3nc4c5c(nc(OC[C@@]67CCCN6[C@H](COC(C(F)(F)F)(C(F)(F)F)C(F)(F)F)CC7)nc5c3F)N3C[C@H]5CC[C@H](N5)[C@H]3CO4)c12` [Example 55, 5-ethynyl-6-fluoro-4-((5aS,6S,9R)-1-fluoro-12-(((3S,7aS)-3-(((1,1,1,3,3,3-hexafluoro-2-(trifluoromethyl)propan-2-yl)oxy)methyl)tetrahydro-1H-pyrrolizin-7a(5H)-yl)methoxy)-5a,6,7,8,9,10-hexahydro-5H-4-oxa-3,10a,11,13,14-pentaaza-6,9-methanonaphtho[1,8-ab]heptalen-2-yl)naphthalen-2-ol], in experiment [1], the pIC50 is 9.30. Besides, in experiment [2], the pEC50 is 9.10.

Molecule `C#Cc1c(F)ccc2cc(O)cc(-c3nc4c5c(nc(OC[C@@]67CCCN6C[C@H](OC(C(F)(F)F)(C(F)(F)F)C(F)(F)F)CC7)nc5c3F)N3C[C@H]5CC[C@H](N5)[C@H]3CO4)c12` [Example 56, 5-ethynyl-6-fluoro-4-((5aS,6S,9R)-1-fluoro-12-(((6R,8aS)-6-((1,1,1,3,3,3-hexafluoro-2-(trifluoromethyl)propan-2-yl)oxy)hexahydroindolizine-8a(1H)-yl)methoxy)-5a,6,7,8,9,10-hexahydro-5H-4-oxa-3,10a,11,13,14-pentaaza-6,9-methanonaphtho[1,8-ab]heptalen-2-yl)naphthalen-2-ol] gave a pIC50 in experiment [1] of 7.89. In experiment [2], the pEC50 was 7.30.

Consider `C#Cc1c(F)ccc2cc(O)cc(-c3cc4c5c(nc(OC[C@@]67CCCN6C[C@H](F)C7)nc5c3F)N3C[C@H]5CC[C@H](N5)[C@H]3CO4)c12` [Example 57, 5-ethynyl-6-fluoro-4-((5aS,6S,9R)-1-fluoro-13-(((2R,7aS)-2-fluorotetrahydro-1H-pyrrolizin-7a(5H)-yl)methoxy)-5a,6,7,8,9,1O-hexahydro-5H-6,9-epiminoazepino[2′,1′:3,4][1,4]oxazepino[5,6,7-de]quinazolin-2-yl)naphthalen-2-ol], for which the pIC50 in experiment [1] is 9.22. The negative-log EC50 (pEC50) in experiment [2] was 7.55.

By pIC50 is commonly meant the IC50 on a negative log10 scale, so that one unit is a factor of ten. Low readings indicate a large IC50, high ones a small IC50. A word on the pEC50: it is the negative decadic logarithm of the EC50, by convention in mol/L.
